Earlier results, collected in patent publication US6730664B1, “Formulations for parenteral use of estramustine phosphate and sulfoalkyl ether cyclodextrins” (Pharmacia Italia S.p.A., priority 1999, dated 2004).

Details: patients, slow intravenous injection or bolus, 300 mg/day

For `C[C@]12CC[C@@H]3c4ccc(OC(=O)N(CCCl)CCCl)cc4CC[C@H]3[C@@H]1CC[C@@H]2OP(=O)(O)O` [estramustine phosphate, Estramustine phosphate], the “side effects at the peripheral intravenous injection sites” value is given as “thrombophlebitis and local irritations”.
